Assay results: PMC6450887, “Metabolic resistance of the D-peptide RD2 developed for direct elimination of amyloid-β oligomers” (Scientific Reports, 2019)
Non-standard residues stand in square brackets, D forms with d. Residues, ends and D or L forms follow the SMILES beside them.

Assay: Stability in simulated intestinal fluid (SIF), RP-HPLC
Format: in vitro ADME
Conditions: simulated intestinal fluid (SIF), 150 µM, 37 °C, 24 h, read-out: unmetabolized peptide remaining (remained stable)
Procedure: The preparation of the media was performed as described before in Elfgen et al.[24]. Preparation of simulated gastric and intestinal fluid (SGF & SIF) was done according to the European Pharmacopoeia 7.0. Plasma samples were obtained from human blood of a volunteer donor. Pooled human liver microsomes were purchased from Sekisui XenoTech (Kansas City, USA; H1000, Lot: 0710494 and 1210270; H1500, Lot: 1210079), from Sigma-Aldrich (St. Louis, USA; M0692, Lot: SLBL1433V; M0567, Lot: SLBR2706V and SLBN7300V) and from Gibco, Thermo Fisher Scientific (Waltham, USA; HMMCPL, Lot: PL050; HMMCPM, Lot: PL039). Pooled Sprague Dawley rat liver microsomes were purchased from Sigma-Aldrich (St. Louis, USA; M9066, Lot: SLBN0707V) and from Gibco, Thermo Fisher Scientific (Waltham, USA; RTMCPL, Lot: RT053). Pooled cynomolgus monkey liver microsomes were purchased from Gibco, Thermo Fisher Scientific (Waltham, USA; MKMCPL, Lot: MK062) and from Sekisui XenoTech (Kansas City, USA; P2000, Lot: 1210334). The liver microsomes were diluted in an NADPH regenerating system (NRS).
For the stability tests, 150 µM RD2 or L-RD2 was incubated in SGF, SIF, human plasma and human liver microsomes in triplicate at 37 °C with slight shaking for different time periods. To prevent microbial contaminations in long-term plasma incubations, 0.1% sodium azide was added to the solutions. Microsomal long-term activity was examined by incubating microsomes without peptide for up to 24 h and adding L-RD2 after 8 and 24 h. The ability to degrade L-RD2 served as indicator for their activity. For the comparison of RD2 metabolite profiles across species, 150 µM RD2 was incubated in human, rat and cynomolgus liver microsomes at 37 °C for 2 and 24 h. […]
For sample analysis from stability tests (see 2.3), mobile phases were acetonitrile (A) and water (B) each supplemented with 0.15% trifluoroacetic acid (TFA) (v/v). The samples were measured isocratically at 10% solvent A for 30 min. […] A chromatographic metabolite profile of L-RD2 in SIF was recorded with the same mobile phases but using a gradient from 0 to 30% solvent A in 30 min.

CC(C)C[C@@H](NC(=O)[C@H](NC(=O)[C@H]1CCCN1)[C@H](C)O)C(=O)N[C@H](Cc1c[nH]cn1)C(=O)N[C@@H](C(=O)N[C@H](Cc1c[nH]cn1)C(=O)N[C@H](CC(N)=O)C(=O)N[C@H](CCCNC(=N)N)C(=O)N[C@H](CCCNC(=N)N)C(=O)N[C@H](CCCNC(=N)N)C(=O)N[C@H](CCCNC(=N)N)C(=O)N[C@H](CCCNC(=N)N)C(N)=O)[C@H](C)O [RD2, ptlhthnrrrrr] (H-[dP][dT][dL][dH][dT][dH][dN][dR][dR][dR][dR][dR]-NH2)
remaining at 24 h, 150 µM: ≥ 97%
